“Also recorded” adds a separate entry of the source. Where a SMILES comes first, the peptide text is derived from it. [ ]: non-standard residue; d: D form. 2Nal = N[C@@H](Cc1ccc2ccccc2c1)C(=O)O
How the values were obtained:
Recombinant PLA2G1B = target: T1, Recombinant PLA2G1B (Homo sapiens, UniProt P04054); assay: Bioassay: recombinant PLA2GIB-mediated inhibition of IL-7-induced nuclear translocation of phospho STAT5 in CD4 T cells (STED microscopy); type: cell-based
T1 construct: sPLA2GIB was produced in E. Coli; Inclusion bodies were solubilized in urea and afterwards renatured; made in house; host or cells: E. coli
T1 sequence (P04054 23-148): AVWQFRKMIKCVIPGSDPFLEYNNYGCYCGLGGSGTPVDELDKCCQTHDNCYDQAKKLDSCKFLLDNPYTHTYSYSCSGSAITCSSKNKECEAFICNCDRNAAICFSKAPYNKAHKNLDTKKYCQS
Description: FIG. 1: Peptide I inhibits sPLA2G1B: Recombinant PLA2G1B (75 nanoM) was first exposed 30 mn to indicated concentrations of Peptide I. The mixture was then applied in the bioassay described in Materials and Methods. % inhibition of IL-7-induced nuclear translocation of phospho STAT5 was measured by STED microscopy. The results of two experiments are shown.
FIG. 2: Calculation of IC50 of Peptide I: Experimental data were analyzed by Prism software in order to precisely calculate the IC50.
sPLA2GIB was produced in E. Coli. Inclusion bodies were solubilized in urea and afterwards renatured. sPLA2GIB was further purified by HPLC. Homogeneity of the preparations was verified by MassSpectrometry (Malditoff). The specific activity of the enzyme was always measured and compared to standard preparations.
(§1) Inhibition of IL-7-induced phosphorylated STAT5 nuclear translocation (NTpSTAT) was measured as follows: VP plasma (5 or 10%) was first incubated with purified HD CD4 T cells (20 min) before stimulation by IL-7 (2 nM, 15 min.). Cells were then plated on polylysine coated glass slides before fixation by PFA (1.5%) and permeabilization by methanol (90% at −20° C.). pSTAT5 was then stained by rabbit anti-STAT5 and labeled with goat anti-rabbit-Atto642. The cells were analyzed by pulsed STED microscopy and the number of nuclei expressing pSTAT5 were counted.
We first investigated the effects of different doses of Peptide I on the biological activity of recombinant PLA2GIB as tested in the bioassay described in Materials and Methods. […] The experiment was repeated twice. From the experimental data we derived the corresponding theoretical curve that gives the IC50. For Peptide I, IC 50 is about 4.9 microM (FIG. 2).

[1] = target: T2, PLA2 GIB contained in the plasma of viremic patients (Homo sapiens, UniProt P04054); assay: Bioassay: inhibition of IL-7-induced NTpSTAT5 in healthy donor CD4 T cells by plasma/sera of viremic HIV-infected patients; type: cell-based
T2 construct: CD4 lymphocytes purified from healthy donors were exposed to sera from viremic HIV-infected patients at 1% or 3% dilution; from tissue; host or cells: plasma/sera of viremic HIV-infected patients
T2 sequence (P04054 23-148): as above
Description: FIG. 3: Peptide I restores the activity of CD4 lymphocytes: CD4 lymphocytes purified from healthy donors were exposed to sera from viremic HIV-infected patients at 1% or 3% dilution. […] Five sera were tested and the results are given as the median+/−SD.
Viremic patients (VP) included in the study had been HIV-positive for more than one year. […] All blood samples from VP were drawn at Hôpital Bicêtre or Centre Hospitalier de Gonesse.
as §1
We have shown that PLA2 GIB contained in the plasma of viremic patients induces a blockade of IL-7-induced nuclear translocation of phospho STAT5 (NT pSTAT5). […] Here we tested the effects of Peptide I on the capacity of the sera from VP to block IL-7-induced NTpSTAT5.
The effect of plasma from various HIV viremic patients (at least 5) were titrated on the inhibition of IL-7-induced NTpSTAT5. […]

inhibitory effect on recombinant PLA2GIB activity (Recombinant PLA2G1B; 5 microM Peptide I): effective | inhibitory effect on recombinant PLA2GIB activity (Recombinant PLA2G1B; 10 microM Peptide I): very strong | IC50 (Recombinant PLA2G1B; recombinant PLA2G1B 75 nanoM exposed 30 mn to Peptide I, calculated with Prism from two experiments, read-out: IC50 (inhibition of recombinant PLA2GIB biological activity)): ~4.9 µM | maximum inhibition (plateau) with the recombinant enzyme (Recombinant PLA2G1B; recombinant pure enzyme in serum free buffer): around 80% | inhibition achieved when the plasma is used ([1]; plasma of viremic patients): around 100%
Structure (SMILES): CC(C)C[C@@H]1NC(=O)[C@H](Cc2ccc3ccccc3c2)NC(=O)[C@H](CCCNC(=N)N)NC(=O)[C@H](Cc2ccc3ccccc3c2)NC(=O)[C@H](CO)NC1=O [Peptide I, cyclic(2-NaphthylAla-Leu-Ser-2-NaphthylAla-Arg)] (cyclo([2Nal]LS[2Nal]R); ring closure inferred)
reversal of sera-induced inhibition of IL-7-induced nuclear translocation of pSTAT5 ([1]; 15 microM Peptide I, sera from viremic HIV-infected patients at 1% or 3% dilution, five sera): totally reversed this inhibition; also recorded: completely reverted the activity of the sera
